Reference: US5424073A (Georgetown University, priority 1993, dated 1995)
Values after ≈ are worked out from the molar mass of the structure shown.

How the values were obtained:
[1] = Stability studies of liposomal and free taxol; assay type: physicochemical; details: free taxol 0.6 mg/ml in saline
Male CD2 F1 mice = experiment: Toxicity evaluation of free and liposomal taxol in normal mice; assay type: in vivo, mouse; details: 25 mg/kg i.v., repeated day 5 and 9
Description: Male CD2 F1 mice weighing 22-25 gm were used in this study. […] Taxol liposomes were prepared using cardiolipin, phosphatidyl choline, and cholesterol. […] The same doses were repeated on mice at day 5 and 9.

[2] = test system: HL-60 promyelocytic leukemia cells; experiment: Growth inhibition (cytotoxicity) in HL-60 leukemia cells; assay type: cell-based; details: Homo sapiens; HL-60, 72 hours, 37° C., trypan blue; FIG. 3
Description: HL-60 promyelocytic leukemia cells were grown in tissue culture in RPM1-1640 medium supplemented with 10% fetal bovine serum. All cultures were maintained in plastic tissue culture flasks and kept in an incubator at 37° C. in humidified air containing 5% CO2.
For these experiments, 1×10^5 cells in exponential growth phase were plated into 25 cm^2 flasks. […] Cells were counted in a hemocytometer and viability was determined by trypan blue exclusion. The cell survival was compared to the control cells and IC50 (inhibitory concentration for 50% of the cells) values for each drug was determined.

HL-60 cells = assay type: cell-based, human; details: 10 μg/ml, FIG. 4
Description: Briefly, exponentially growing cells were incubated in 100 mm petri dishes with drug containing medium at 37° C. […] The cell pellets were suspended in 0.5 ml of 2% SDS solution and then sonicated for 5 minutes in a cup-horn sonicator. The cell homogenate was extracted with 2 ml of methanol.

HL-60/VCR cells [3] = experiment: Cytotoxicity in multidrug resistant HL-60/VCR cells; assay type: cell-based; details: Homo sapiens, HL60/VCR, 72 hours, FIG. 5
Description: The HL-60 VCR cells were grown in media at 37° C. with 5% CO2.
After 72 hours of incubation, cells in each flask were counted by hemocytometer and viability was determined by trypan blue exclusion. Percent survival of treated cells was determined relative to untreated control. Cytotoxic activity was expressed as IC50 which was defined as the concentration of drug resulting 50% survival of the cells compared to control.

HL-60/VCR cells [4] = experiment: Intracellular taxol accumulation in HL-60/VCR cells; assay type: cell-based, human; details: 4 hours
Description: The cells were suspended in cold PBS and counted, and centrifuged again. The cell pellets were suspended in 0.5 ml of 2% SDS solution and then sonicated for 5 minutes in a cup-horn sonicator (Heat Systems, Farmingdate, N.Y.). Resulting cell homogenate was extracted with 4 ml of methanol, vortexed for 1 minute and centrifuged for 20 minutes at 3000 rpm. The samples were read by using HPLC. The concentration of drug in […] was calculated using a standard calibration curve for drug spiked cells and were then treated similarly.

B16 melanoma = details: i.p. implanted; cited from earlier work
L1210 leukemia = details: in vivo; cited from earlier work
P388 leukemia = details: in vivo; cited from earlier work
[5] = test system: human MX-1 mammary tumor xenograft; details: in vivo; cited from earlier work
advanced ovarian tumors = details: women with advanced ovarian tumors; cited from earlier work
[6] = test system: lymphoma, ovarian and breast cancers; details: cited from earlier work
metastatic breast cancer = details: in vivo; cited from earlier work
tubulin = details: cited from earlier work
cell replication = details: in vitro; cited from earlier work
[7] = cited from earlier work
[8] = cited from earlier work; remark: listed apart in the source

CC(=O)O[C@H]1C(=O)[C@@]2(C)[C@H]([C@H](OC(=O)c3ccccc3)[C@]3(O)C[C@H](OC(=O)[C@H](O)[C@@H](NC(=O)c4ccccc4)c4ccccc4)C(C)=C1C3(C)C)[C@]1(OC(C)=O)CO[C@@H]1C[C@@H]2O (relative stereo) [Taxol, (2aR(2aα,4β,4aβ,6β,9α(αR*,βS*) ,11α, 12α,12aα,12bα))-β-(β-(benzoylamino)-α-hydroxybenzenepropanoic acid 6,12b-bis(acetyloxy)-12-(benzoyloxy)-2a,3,4,4a,5,6,9,10,11,12,12a,12b-dodecahydro-4,11-dihydroxy-4a, 8,13,13-tetramethyl-5-oxo-7,11-methano-14-cyclodeca(3,4)benz(1,2-6)oxet-9-yl ester]
degradation time in saline [1]: ≤ 3 h | sclerosis of the vein (Male CD2 F1 mice): sclerosis of the vein | mortality / toxicity by day 12 (Male CD2 F1 mice; ten mice per group, FIG. 2): three mice in the free taxol group died because of toxicity | IC50 [2]: 0.0025 µg/mL (≈ 0.00293 µM) | cellular concentration of taxol at 2 and 4 hours (HL-60 cells; 2 and 4 hours, HL-60, relative to 1 hour): same taxol concentration | cellular concentration of taxol at 1 hour (HL-60 cells; 1 hour, HL-60): 5.18 μg/10^7 cells | IC50 (HL-60/VCR cells [3]): 2.43 µg/mL (≈ 2.85 µM) | decrease in cellular uptake versus liposomal taxol (HL-60/VCR cells [4]): threefold decrease in cellular uptake | antineoplastic activity against B16 melanoma (B16 melanoma): significant antineoplastic activity | antineoplastic activity against L1210 leukemia (L1210 leukemia): significant antineoplastic activity | antineoplastic activity against P388 leukemia (P388 leukemia): significant antineoplastic activity | antineoplastic activity against MX-1 xenograft [5]: significant antineoplastic activity | tumor shrinkage, share of women (advanced ovarian tumors): 30 to 40% | activity in clinical trials [6]: sufficient activity | treatment of metastatic breast cancer (metastatic breast cancer): considerable promise | effect on tubulin polymerization (tubulin): markedly enhances all aspects of tubulin polymerization | inhibition of cell replication (cell replication): potent inhibitor of cell replication in vitro | toxicities despite pretreatment and prolonged infusion ([7]; antihistamine and corticosteroids, infusion six to twenty four hours): serious toxicities which are often fatal | cardiac toxicity ([7]; human, in vivo): treatment limiting | degradation time once diluted in saline ([8]; diluted in saline solution): ≤ 24 h | precipitation from dilution ([8]; diluted in saline solution): the drug precipitates from dilution | solubility in water ([8]; water): limited solubility in water
